According to PubChem BioAssay AID1963825 (Molecular Pharmacology Branch, DTP, NCI, 2024):

Assay: Anticancer human tumor 997537-175-T-J1-PDC patient-derived colon adenocarcinoma cell line growth inhibition [POLQ]
Conditions: 997537-175-T-J1-PDC complex spheroid viability, combination with POLQ inhibitors; for IC50: curve of first compound; for viability, T/C: stronger effect = lower value
In short: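 Three-cell-type spheroids modelling solid tumor plus stroma served as the readout system; POL inhibitors were tested individually and in combination, concentration ranges set by clinical Cmax where known.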

[1] = second compound 0.0316 µM, first compound 0.0316 µM
[2] = second compound 0.0316 µM, first compound 0.1 µM
[3] = second compound 0.0316 µM, first compound 0.316 µM
[4] = second compound 0.0316 µM, first compound 1 µM
[5] = second compound 0.0316 µM, first compound 3.16 µM
[6] = second compound 0.0316 µM, first compound 10 µM
[7] = second compound 0.1 µM, first compound 0.0316 µM
[8] = second compound 0.1 µM, first compound 0.1 µM
[9] = second compound 0.1 µM, first compound 0.316 µM
[10] = second compound 0.1 µM, first compound 1 µM
[11] = second compound 0.1 µM, first compound 3.16 µM
[12] = second compound 0.1 µM, first compound 10 µM
[13] = second compound 0.316 µM, first compound 0.0316 µM
[14] = second compound 0.316 µM, first compound 0.1 µM
[15] = second compound 0.316 µM, first compound 0.316 µM
[16] = second compound 0.316 µM, first compound 1 µM
[17] = second compound 0.316 µM, first compound 3.16 µM
[18] = second compound 0.316 µM, first compound 10 µM
[19] = second compound 1 µM, first compound 0.0316 µM
[20] = second compound 1 µM, first compound 0.1 µM
[21] = second compound 1 µM, first compound 0.316 µM
[22] = second compound 1 µM, first compound 1 µM
[23] = second compound 1 µM, first compound 3.16 µM
[24] = second compound 1 µM, first compound 10 µM
[25] = second compound 3.16 µM, first compound 0.0316 µM
[26] = second compound 3.16 µM, first compound 0.1 µM
[27] = second compound 3.16 µM, first compound 0.316 µM
[28] = second compound 3.16 µM, first compound 1 µM
[29] = second compound 3.16 µM, first compound 3.16 µM
[30] = second compound 3.16 µM, first compound 10 µM
[31] = second compound 10 µM, first compound 0.0316 µM
[32] = second compound 10 µM, first compound 0.1 µM
[33] = second compound 10 µM, first compound 0.316 µM
[34] = second compound 10 µM, first compound 1 µM
[35] = second compound 10 µM, first compound 3.16 µM
[36] = second compound 10 µM, first compound 10 µM
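Note: luminescence signal used as a surrogate for viable cells; spheroids exposed to drugs for seven days before readout.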

Q: Which IC50 (second compound 0.0316 µM) does the source give for `CCc1cc2c(N3CCc4c(cc(Cn5ccnc5)cc4-c4cn(C)nc4C(F)(F)F)C3=O)ccnc2c(OC)n1` + Nc1ccc(C#CCN(C(=O)Cc2ncc(C(F)(F)F)cc2C(F)(F)F)c2ccc(F)cc2)nn1 here?
A: > 10 µM

Q: What about the IC50 (second compound 0.1 µM) of the same compound?
A: > 10 µM

Q: What about the IC50 (second compound 0.316 µM) of the same compound?
A: > 10 µM

Q: And the IC50 (second compound 1 µM)?
A: > 10 µM

Q: What about the IC50 (second compound 3.16 µM) of the same compound?
A: > 10 µM

Q: And the IC50 (second compound 10 µM)?
A: > 10 µM

Q: What about the viability, T/C [1] of the same compound?
A: 89.5%

Q: What about the viability, T/C [2] of the same compound?
A: 110%

Q: What about the viability, T/C [3] of the same compound?
A: 94.7%

Q: What about the viability, T/C [4] of the same compound?
A: 97.2%

Q: What about the viability, T/C [5] of the same compound?
A: 85.9%

Q: What about the viability, T/C [6] of the same compound?
A: 57.8%

Q: And the viability, T/C [7]?
A: 94.6%

Q: And the viability, T/C [8]?
A: 98.2%

Q: What about the viability, T/C [9] of the same compound?
A: 87%

Q: And the viability, T/C [10]?
A: 114%

Q: What about the viability, T/C [11] of the same compound?
A: 82.1%

Q: What about the viability, T/C [12] of the same compound?
A: 63.2%

Q: And the viability, T/C [13]?
A: 92.4%

Q: What about the viability, T/C [14] of the same compound?
A: 93.5%

Q: What about the viability, T/C [15] of the same compound?
A: 83.5%

Q: And the viability, T/C [16]?
A: 94.6%

Q: And the viability, T/C [17]?
A: 68.4%

Q: What about the viability, T/C [18] of the same compound?
A: 61.8%

Q: And the viability, T/C [19]?
A: 103%

Q: What about the viability, T/C [20] of the same compound?
A: 104%

Q: What about the viability, T/C [21] of the same compound?
A: 97.3%

Q: And the viability, T/C [22]?
A: 77%

Q: What about the viability, T/C [23] of the same compound?
A: 77.4%

Q: What about the viability, T/C [24] of the same compound?
A: 86.9%

Q: What about the viability, T/C [25] of the same compound?
A: 97%

Q: And the viability, T/C [26]?
A: 76.5%

Q: And the viability, T/C [27]?
A: 90.5%

Q: And the viability, T/C [28]?
A: 91.2%

Q: And the viability, T/C [29]?
A: 71.6%

Q: What about the viability, T/C [30] of the same compound?
A: 64.1%

Q: And the viability, T/C [31]?
A: 97.4%

Q: What about the viability, T/C [32] of the same compound?
A: 96.2%

Q: What about the viability, T/C [33] of the same compound?
A: 101%

Q: And the viability, T/C [34]?
A: 91%

Q: What about the viability, T/C [35] of the same compound?
A: 79.5%

Q: What about the viability, T/C [36] of the same compound?
A: 75.5%

Q: What does the source list for `C=CC(=O)N1CCN(c2nc(=O)n(-c3c(C)ccnc3C(C)C)c3nc(-c4c(O)cccc4F)c(F)cc23)C(C)C1` (stereo unspecified) + Cc1cccc(N(C)C(=O)C2C(O)CCN2c2nc(C)cc(C(F)(F)F)c2C#N)c1?
A: IC50 (second compound 0.0316 µM): > 10 µM; IC50 (second compound 0.1 µM): > 10 µM; IC50 (second compound 0.316 µM): > 10 µM; IC50 (second compound 1 µM): > 10 µM; IC50 (second compound 3.16 µM): > 10 µM; IC50 (second compound 10 µM): > 10 µM; viability, T/C [1]: 98.6%; viability, T/C [2]: 96.7%; viability, T/C [3]: 102%; viability, T/C [4]: 106%; viability, T/C [5]: 96.3%; viability, T/C [6]: 103%; viability, T/C [7]: 104%; viability, T/C [8]: 114%; viability, T/C [9]: 92.2%; viability, T/C [10]: 106%; viability, T/C [11]: 96%; viability, T/C [12]: 94.3%; viability, T/C [13]: 101%; viability, T/C [14]: 113%; viability, T/C [15]: 108%; viability, T/C [16]: 99.5%; viability, T/C [17]: 102%; viability, T/C [18]: 104%; viability, T/C [19]: 105%; viability, T/C [20]: 108%; viability, T/C [21]: 111%; viability, T/C [22]: 108%; viability, T/C [23]: 105%; viability, T/C [24]: 82.2%; viability, T/C [25]: 103%; viability, T/C [26]: 99.3%; viability, T/C [27]: 98.6%; viability, T/C [28]: 98.7%; viability, T/C [29]: 93.9%; viability, T/C [30]: 99.3%; viability, T/C [31]: 102%; viability, T/C [32]: 121%; viability, T/C [33]: 94.8%; viability, T/C [34]: 96.1%; viability, T/C [35]: 79.8%; viability, T/C [36]: 93.1%

Q: With `O=C(Nc1ccc(O)c(NS(=O)(=O)c2ccc(F)cc2)c1)c1ccc(-c2ccccc2)cc1` + Nc1ccc(C#CCN(C(=O)Cc2ncc(C(F)(F)F)cc2C(F)(F)F)c2ccc(F)cc2)nn1 as the compound, how does the IC50 (second compound 0.0316 µM) read?
A: > 10 µM

Q: And the IC50 (second compound 0.1 µM)?
A: > 10 µM

Q: And the IC50 (second compound 0.316 µM)?
A: > 10 µM

Q: And the IC50 (second compound 1 µM)?
A: > 10 µM

Q: What about the IC50 (second compound 3.16 µM) of the same compound?
A: > 10 µM

Q: And the IC50 (second compound 10 µM)?
A: > 10 µM

Q: And the viability, T/C [1]?
A: 106%

Q: And the viability, T/C [2]?
A: 108%

Q: What about the viability, T/C [3] of the same compound?
A: 106%

Q: And the viability, T/C [4]?
A: 99.1%

Q: What about the viability, T/C [5] of the same compound?
A: 91.3%

Q: And the viability, T/C [6]?
A: 97.7%

Q: What about the viability, T/C [7] of the same compound?
A: 109%

Q: And the viability, T/C [8]?
A: 91.9%

Q: And the viability, T/C [9]?
A: 96.8%

Q: What about the viability, T/C [10] of the same compound?
A: 105%

Q: What about the viability, T/C [11] of the same compound?
A: 119%

Q: And the viability, T/C [12]?
A: 87.5%

Q: What about the viability, T/C [13] of the same compound?
A: 104%

Q: And the viability, T/C [14]?
A: 114%

Q: What about the viability, T/C [15] of the same compound?
A: 106%

Q: What about the viability, T/C [16] of the same compound?
A: 101%

Q: And the viability, T/C [17]?
A: 107%

Q: What about the viability, T/C [18] of the same compound?
A: 84.6%

Q: What about the viability, T/C [19] of the same compound?
A: 105%

Q: What about the viability, T/C [20] of the same compound?
A: 105%

Q: What about the viability, T/C [21] of the same compound?
A: 95.2%

Q: And the viability, T/C [22]?
A: 101%

Q: And the viability, T/C [23]?
A: 102%

Q: And the viability, T/C [24]?
A: 89.8%

Q: What about the viability, T/C [25] of the same compound?
A: 98%

Q: And the viability, T/C [26]?
A: 97.9%

Q: What about the viability, T/C [27] of the same compound?
A: 114%

Q: And the viability, T/C [28]?
A: 110%

Q: And the viability, T/C [29]?
A: 102%

Q: What about the viability, T/C [30] of the same compound?
A: 90.9%

Q: And the viability, T/C [31]?
A: 105%

Q: And the viability, T/C [32]?
A: 101%

Q: What about the viability, T/C [33] of the same compound?
A: 113%

Q: What about the viability, T/C [34] of the same compound?
A: 103%

Q: And the viability, T/C [35]?
A: 97.4%

Q: And the viability, T/C [36]?
A: 81%
